The subject of this data set is human PCSK9 locus. The data set can be described thus: Secreted PCSK9 by ELISA (normalized to total cell count) in Huh7 cells transfected with mRNA and gRNA. Format: cell-based. As to conditions: paired with LTRP5-ADD-ZIM3 mRNA, Huh7 cells, 6 days post-transfection; for Secreted PCSK9: normalized to total cell count; for Percent reduction in PCSK9 secretion: relative to non-targeting gRNA control; for Average percent reduction in PCSK9 secretion: averaged from the two doses. How it is done: To assess PCSK9 secretion, seeded Huh7 cells were transfected with mRNA encoding a catalytically-active CasX 676, dXR1, or LTRP5-ADD-ZIM3 and a gRNA with scaffold 316 and spacer targeting either the B2M or PCSK9 locus. Media supernatant was harvested at 6, 18, 36, and 87 days post-transfection to assess level of PCSK9 secretion by ELISA. Levels of PCSK9 secretion were normalized to total cell count. As an additional control, PCSK9 secretion was also measured in the media supernatant harvested from wells containing untreated, naïve cells.
The following three human hepatocyte cancer cell lines were used in this experiment: HepG2 cells, Hep3B cells, and Huh7 cells. ˜15,000 cells of each cell line were seeded per well; the next day, seeded cells were transfected with mRNA encoding a catalytically-active CasX 676, dXR1, or LTRP5-ADD-ZIM3 and a gRNA with scaffold 316 and spacer targeting either the B2M or PCSK9 locus (see Table 23 for specific spacers and sequences). Media supernatant was harvested at 4 days post-transfection to assess level of PCSK9 secretion by ELISA, and levels of PCSK9 secretion were normalized to total cell count and illustrated in FIGS. 11A-11C. Culturing of treated Huh7 cells continued, and media supernatant was harvested at 14 and 27 days post-transfection for measuring PCSK9 secretion by ELISA. As an additional experimental control, PCSK9 secretion was also measured in the media supernatant harvested from wells containing untreated, naïve cells.
To assess PCSK9 secretion, seeded Huh7 cells were co-transfected with mRNA encoding for LTRP5-ADD-ZIM3 and a gRNA with scaffold 316 and spacer targeting the PCSK9 locus using Lipofectamine™ 3000. Two doses of total RNA input at a 2:1 mass ratio of mRNA to gRNA were used for screening: 50 ng mRNA: 25 ng gRNA and 25 ng mRNA: 12.5 ng gRNA. Media supernatant was harvested at 6 days post-transfection to assess level of PCSK9 secretion by ELISA (Table 74). Levels of PCSK9 secretion were normalized to total cell count. As an additional control, PCSK9 secretion was also measured in the media supernatant harvested from cells transfected with mRNA encoding for mScarlet.

Consider “CAGUACGUUCCAGGCAUUCA (listed as RNA, chemistry not given here) [spacer 6.171, Intron 1]”, for which the “Average percent reduction in PCSK9 secretion” value (“Average percent reduction” for short) came out at 28.88%. Also, where the note is “25 ng mRNA:12.5 ng gRNA”, the “Secreted PCSK9” value was 55.95 ng/mL and the “Percent reduction in PCSK9 secretion” value is 21.46%. Also, under “50 ng mRNA:25 ng gRNA”, the “Secreted PCSK9” value is listed as 52.41 ng/mL and the “Percent reduction in PCSK9 secretion” value is 36.3%.
Regarding “CAGUAUCGACAGCCCUUCCA (listed as RNA, chemistry not given here) [spacer 6.124, Promoter]”, the “Average percent reduction” value came to 68.48%. Moreover, under “25 ng mRNA:12.5 ng gRNA”, the “Secreted PCSK9” value amounted to 30.59 ng/mL and the “Percent reduction in PCSK9 secretion” value was 57.06%. Under “50 ng mRNA:25 ng gRNA”, the “Secreted PCSK9” value is 16.54 ng/mL and the “Percent reduction in PCSK9 secretion” value amounted to 79.9%.
Turning to “CCUUUGUUUCUUCCCAGUAU (listed as RNA, chemistry not given here) [spacer 6.122, Promoter]”, the “Average percent reduction” value is reported as 8.63%. Moreover, under “25 ng mRNA:12.5 ng gRNA”, the “Secreted PCSK9” value is 86.06 ng/mL and the “Percent reduction in PCSK9 secretion” value came to 20.79%. Also, where the note is “50 ng mRNA:25 ng gRNA”, the “Secreted PCSK9” value is 79.36 ng/mL and the “Percent reduction in PCSK9 secretion” value came to 3.54%.
For “CCUUUUCAUCCUCCUGCCUG (listed as RNA, chemistry not given here) [spacer 6.126, Promoter]”, in that order: 54.27%, 44.82 ng/mL, 37.09%, 23.48 ng/mL and 71.46%.
Regarding “CGCGCCCUGCUCCUGAACUU (listed as RNA, chemistry not given here) [spacer 6.160, Exon 1]”, the “Average percent reduction” value amounted to 53.31%. For the setting “25 ng mRNA:12.5 ng gRNA”, the “Secreted PCSK9” value amounted to 48.67 ng/mL and the “Percent reduction in PCSK9 secretion” value was 31.69%. Besides, where the note is “50 ng mRNA:25 ng gRNA”, the “Secreted PCSK9” value came to 20.63 ng/mL and the “Percent reduction in PCSK9 secretion” value was 74.93%.
As for “CGGGGUUGGGAGACCCGGAG (listed as RNA, chemistry not given here) [spacer 6.169, Intron 1]”, the “Average percent reduction” value is 15.75%. Also, under “25 ng mRNA:12.5 ng gRNA”, the “Secreted PCSK9” value was found to be 62.55 ng/mL and the “Percent reduction in PCSK9 secretion” value came to 12.2%. In addition, under “50 ng mRNA:25 ng gRNA”, the “Secreted PCSK9” value is 66.39 ng/mL and the “Percent reduction in PCSK9 secretion” value was 19.3%.
With “CUCGGAAUCUGCUGUGCAUC (listed as RNA, chemistry not given here) [spacer 6.120, Promoter]”, the “Average percent reduction” value came to 53.31%. Also, where the note is “25 ng mRNA:12.5 ng gRNA”, the “Secreted PCSK9” value came to 47.97 ng/mL and the “Percent reduction in PCSK9 secretion” value was 32.67%. For the setting “50 ng mRNA:25 ng gRNA”, the “Secreted PCSK9” value stood at 21.43 ng/mL and the “Percent reduction in PCSK9 secretion” value was determined as 73.95%.
The matching figures for “CUCUGCGCGUAAUCUGACGC (listed as RNA, chemistry not given here) [spacer 6.151, Promoter]”: 20.91%, 66.42 ng/mL, 6.77%, 53.44 ng/mL and 35.05%.
For “GAAGUCUCACUGGUCAGCAG (listed as RNA, chemistry not given here) [spacer 6.146, Promoter]”, in that order: 60.9%, 20.34 ng/mL, 71.45%, 40.84 ng/mL and 50.36%.
For “GAAUCAAUCCUACUGUGGAC (listed as RNA, chemistry not given here) [spacer 6.143, Promoter]”, in that order: 60.81%, 22.33 ng/mL, 68.66%, 38.69 ng/mL and 52.97%.
Consider “GAAUUCUAUGGUAGGCACAA (listed as RNA, chemistry not given here) [spacer 6.134, Promoter]”, for which the “Average percent reduction” value was determined as 33.07%. Moreover, under “25 ng mRNA:12.5 ng gRNA”, the “Secreted PCSK9” value stood at 57.45 ng/mL and the “Percent reduction in PCSK9 secretion” value is on record as 19.37%. For the same sequence, for the setting “50 ng mRNA:25 ng gRNA”, the “Secreted PCSK9” value was 43.79 ng/mL and the “Percent reduction in PCSK9 secretion” value came out at 46.77%.
On to “GAGCAGGCCAUUUCACUCGG (listed as RNA, chemistry not given here) [spacer 6.119, Promoter]”, for which the “Average percent reduction” value turned out to be 2.1%. Under “25 ng mRNA:12.5 ng gRNA”, the “Secreted PCSK9” value was determined as 84.54 ng/mL and the “Percent reduction in PCSK9 secretion” value turned out to be 18.66%. Also, where the note is “50 ng mRNA:25 ng gRNA”, the “Secreted PCSK9” value worked out at 70.37 ng/mL and the “Percent reduction in PCSK9 secretion” value was 14.47%.
The matching figures for “GAGUGAAAUGGCCUGCUCUG (listed as RNA, chemistry not given here) [spacer 6.118, Promoter]”: 39.99%, 54.78 ng/mL, 23.11%, 35.5 ng/mL and 56.86%.
In the case of “GCAGCGACGUCGAGGCGCUC (listed as RNA, chemistry not given here) [spacer 6.155, Exon 1]”, the “Average percent reduction” value stood at 42.55%. For the same sequence, for the setting “25 ng mRNA:12.5 ng gRNA”, the “Secreted PCSK9” value was found to be 56.36 ng/mL and the “Percent reduction in PCSK9 secretion” value turned out to be 20.89%. Moreover, under “50 ng mRNA:25 ng gRNA”, the “Secreted PCSK9” value amounted to 29.45 ng/mL and the “Percent reduction in PCSK9 secretion” value came out at 64.21%.
Turning to “GCCAGGCCGUCCUCCUCGGA (listed as RNA, chemistry not given here) [spacer 6.4, Exon 1]”, the “Average percent reduction” value worked out at 15.41%. For the setting “25 ng mRNA:12.5 ng gRNA”, the “Secreted PCSK9” value worked out at 73.05 ng/mL and the “Percent reduction in PCSK9 secretion” value came out at 2.54%. For the setting “50 ng mRNA:25 ng gRNA”, the “Secreted PCSK9” value was 54.83 ng/mL and the “Percent reduction in PCSK9 secretion” value was 33.35%.
For the sequence “GCCGGGCCCACCUUUUCAGU (listed as RNA, chemistry not given here) [spacer 6.148, Promoter]”, the “Average percent reduction” value was determined as 25.15%. Where the note is “25 ng mRNA:12.5 ng gRNA”, the “Secreted PCSK9” value is 44.77 ng/mL and the “Percent reduction in PCSK9 secretion” value is reported as 37.16%. Under “50 ng mRNA:25 ng gRNA”, the “Secreted PCSK9” value is listed as 71.46 ng/mL and the “Percent reduction in PCSK9 secretion” value is given as 13.15%.
As for “GCCUCGCCCUCCCCAAACAG (listed as RNA, chemistry not given here) [spacer 6.152, Promoter]”, the “Average percent reduction” value came out at 37.24%. In addition, for the setting “25 ng mRNA:12.5 ng gRNA”, the “Secreted PCSK9” value was 57.43 ng/mL and the “Percent reduction in PCSK9 secretion” value is recorded as 19.39%. In addition, where the note is “50 ng mRNA:25 ng gRNA”, the “Secreted PCSK9” value is reported as 36.95 ng/mL and the “Percent reduction in PCSK9 secretion” value came to 55.09%.
For the sequence “GCGCGCCCCUUCACGCGCCC (listed as RNA, chemistry not given here) [spacer 6.159, Exon 1]”, the “Average percent reduction” value came out at 10.97%. For the setting “25 ng mRNA:12.5 ng gRNA”, the “Secreted PCSK9” value is reported as 80.84 ng/mL and the “Percent reduction in PCSK9 secretion” value is given as 13.47%. In addition, where the note is “50 ng mRNA:25 ng gRNA”, the “Secreted PCSK9” value came out at 53.15 ng/mL and the “Percent reduction in PCSK9 secretion” value was 35.4%.
As for “GCUCCUGCACAGUCCUCCCC (listed as RNA, chemistry not given here) [spacer 6.161, Exon 1]”, the “Average percent reduction” value came out at 44.73%. Under “25 ng mRNA:12.5 ng gRNA”, the “Secreted PCSK9” value amounted to 53.16 ng/mL and the “Percent reduction in PCSK9 secretion” value stood at 25.38%. Further, where the note is “50 ng mRNA:25 ng gRNA”, the “Secreted PCSK9” value was 29.55 ng/mL and the “Percent reduction in PCSK9 secretion” value stood at 64.08%.
The matching figures for “GCUGAAACAGAUGGAAUACU (listed as RNA, chemistry not given here) [spacer 6.172, Intron 1]”: 31.37%, 59.31 ng/mL, 16.75%, 44.44 ng/mL and 45.99%.

For the origin of these results see patent publication US12551573B2, “Compositions and methods for the targeting of PCSK9” (Scribe Therapeutics Inc., priority 2022, dated 2026).
